Reference: US7259188B2, “Methods and pharmaceutical compositions for treatment of anti-estrogen resistant breast cancer using RXR modulators” (priority 1998, dated 2007)
pEC50: −log10 of the molar value. Read-outs that look alike come from different tables or passages of the source.

Experiments:
[1] = molecular target: T1, RXRβ (UniProt P28704); type: cell-based
T1 sequence (P28704 1-520): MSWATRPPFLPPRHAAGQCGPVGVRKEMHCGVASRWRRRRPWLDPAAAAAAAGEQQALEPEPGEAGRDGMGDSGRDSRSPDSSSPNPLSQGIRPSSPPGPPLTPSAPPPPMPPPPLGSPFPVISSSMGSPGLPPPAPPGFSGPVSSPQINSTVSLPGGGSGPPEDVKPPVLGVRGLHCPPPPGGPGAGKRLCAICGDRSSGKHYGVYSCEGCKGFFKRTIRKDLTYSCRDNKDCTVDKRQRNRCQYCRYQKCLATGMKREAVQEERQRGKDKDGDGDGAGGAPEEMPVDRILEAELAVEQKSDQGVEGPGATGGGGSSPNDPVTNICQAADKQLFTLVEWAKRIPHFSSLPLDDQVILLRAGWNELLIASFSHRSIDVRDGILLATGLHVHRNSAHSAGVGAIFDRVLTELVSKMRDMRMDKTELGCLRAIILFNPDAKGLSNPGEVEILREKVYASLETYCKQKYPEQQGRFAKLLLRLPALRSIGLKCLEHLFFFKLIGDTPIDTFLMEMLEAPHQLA
From the text: Briefly, the co-transfection assay involves the introduction of two plasmids by transient transfection into a retinoid receptor-negative mammalian cell background. The first plasmid contains a retinoid receptor cDNA and directs constitutive expression of the encoded receptor. The second plasmid contains a cDNA that encodes for a readily quantifiable protein, e.g., firefly luciferase or chloramphenicol acetyl transferase (CAT), under control of a promoter containing a retinoid acid response element, which confers retinoid dependence on the transcription of the reporter. […] This assay can be used to accurately measure efficacy and potency of retinoic acid and synthetic retinoids as ligands that interact with the individual retinoid receptor subtypes.

[2] = system: tamoxifen-resistant primary tumors; assay: Example 1: tumor response of tamoxifen-resistant NMU-induced mammary tumors; type: in vivo, Sprague-Dawley rats; settings: additional six weeks; for combined response of partial or complete regression / incidence of progressive disease / complete regression of tumors: LGD1069 100 mg/kg orally daily added to tamoxifen 800 μg/kg sc daily, versus tamoxifen alone; for complete regression of tumors: p<0.05
Experimental: (§1) Mammary tumorigenesis was induced by administration of 50 mg/kg of N-nitroso-N-methylurea (NMU) (Sigma, St. Louis, Mo.) to 50 day old virgin female Sprague-Dawley rats (Harlan-SD, Indianapolis, Ind.). […] Fresh solutions of NMU were injected within 30 minutes of preparation. The animals were injected in the tail vein with 5 mg NMU/100 g body weight. Rats were housed in a USDA registered facility in accordance with NIH guidelines for the care and use of laboratory animals. […] Beginning five weeks after tumor induction, animals were examined for tumors twice a week. Tumors were measured with electronic calipers (Mitushoyo, Japan) and cross sectional areas were determined by multiplying the longest length of the tumor by the greatest perpendicular width of the tumor.

[3] = system: primary mammary tumors; assay: Example 4: NMU-induced mammary tumors, submaximally efficacious doses alone and coadministered; type: in vivo, Sprague-Dawley rats; settings: for primary mammary tumors regressed: single agent at submaximally efficacious dose: LGD1069 10 mg/kg, tamoxifen 150 mg/kg
Experimental: as §1

[4] = system: tumors that grew in the presence of the low-dose tamoxifen; assay: Example 2: NMU-induced tumors that grew in the presence of low-dose tamoxifen; settings: LGD1069 100 mg/kg PO added to low-dose tamoxifen therapy, compared to treatment with tamoxifen (800 μg/kg SC)
[5] = system: mammary carcinoma development; settings: NMU-treated rat, compared with tamoxifen; cited from earlier work
[6] = system: established mammary tumors; assay: Example 3: established NMU-induced mammary tumors, six weeks of treatment; type: in vivo, Sprague-Dawley rats; settings: for tumors completely regressed / tumors continued to progress / tumors partially regressed: LGD1069 100 mg/kg or tamoxifen 800 μg/kg
Experimental: Mammary tumorigenesis was induced by administration of 50 mg/kg of N-nitroso-N-methylurea (NMU) (Sigma, St. Louis, Mo.) to 50 day old virgin female Sprague-Dawley rats (Harlan-SD, Indianapolis, Ind.). NMU was formulated as an aqueous solution of 10 mg/ml by wetting NMU powder with 3% acetic acid and dissolving it in sterile saline. Fresh solutions of NMU were injected within 30 minutes of preparation. The animals were injected in the tail vein with 5 mg NMU/100 g body weight. Rats were housed in a USDA registered facility in accordance with NIH guidelines for the care and use of laboratory animals. […] Beginning five weeks after tumor induction, animals were examined for tumors twice a week. Tumors were measured with electronic calipers (Mitushoyo, Japan) and cross sectional areas were determined by multiplying the longest length of the tumor by the greatest perpendicular width of the tumor.

[7] = system: estrogen receptor positive breast cancers; settings: patients, tamoxifen treatment; cited from earlier work

Cc1cc2c(cc1/C(=N/O)c1ccc(C(=O)O)cc1)C(C)(C)CCC2(C)C [LDG100324]
Efficacy [1]: 51%
pEC50 ([1]; read-out: Potency): 8.10

C=C(c1ccc(C(=O)O)cc1)c1cc2c(cc1C)C(C)(C)CCC2(C)C [LGD1069]
combined response of partial or complete regression [2]: more than 90%
incidence of progressive disease [2]: 3%
complete regression of tumors [2]: 56%
incidence of stable disease ([2]; LGD1069 100 mg/kg orally daily added to tamoxifen, compared with tamoxifen alone): reduced the incidence
tumors completely regressing ([3]; LGD1069 10 mg/kg coadministered with tamoxifen 150 mg/kg): 26.3%
primary mammary tumors regressed [3]: 10.5%
amount of progressive disease [4]: significantly reduced the amount of progressive disease
inhibiting mammary carcinoma development (chemopreventive) [5]: as effective as the anti-estrogen tamoxifen
antitumor efficacy on established mammary tumors ([6]; LGD1069 100 mg/kg daily for six weeks, compared with tamoxifen 800 μg/kg): greater efficacy than treatment with tamoxifen
tumors completely regressed ([6]; daily for six weeks): 72.2%
tumors continued to progress ([6]; daily for six weeks): 11.1%
tumors partially regressed ([6]; daily for six weeks): 16.7%

CC1=C(/C=C/C(C)=C\C=C\C(C)=C\C(=O)O)C(C)(C)CCC1 [9-cis-retinoic acid, reference compound]
Efficacy ([1]; RXRβ, co-transfection assay): 140%

CC/C(=C(\c1ccccc1)c1ccc(OCCN(C)C)cc1)c1ccccc1 [tamoxifen, reference compound]
combined response of partial or complete regression [2]: 44%
incidence of progressive disease [2]: 44%
complete regression of tumors [2]: 16.7%
primary mammary tumors regressed [3]: 5.6%
estrogen receptor positive breast cancers that respond to treatment [7]: approximately 66%
tumors completely regressed ([6]; daily for six weeks): 33.3%
tumors continued to progress ([6]; daily for six weeks): 28.6%
tumors partially regressed ([6]; daily for six weeks): 33.3%
tumors remained static ([6]; daily for six weeks, tamoxifen 800 μg/kg): 4.8%
